From ChEMBL document CHEMBL4190178 (Medchemcomm, 2016) come the findings set out here.

For data set [1], the system named is Rattus norvegicus. The data set can be described thus: Toxicity in benign prostatic hyperplasia Sprague-Dawley rat model assessed as effect on testis weight at 10 mg/kg, po qd co-administered with citral for 21 days starting post 8 days of citral alone treatment. The format is organism-based. Particulars: in vivo.
The target in data set [2] is T1, Androgen receptor (Homo sapiens) (UniProt P10275).
T1 sequence (whole entry): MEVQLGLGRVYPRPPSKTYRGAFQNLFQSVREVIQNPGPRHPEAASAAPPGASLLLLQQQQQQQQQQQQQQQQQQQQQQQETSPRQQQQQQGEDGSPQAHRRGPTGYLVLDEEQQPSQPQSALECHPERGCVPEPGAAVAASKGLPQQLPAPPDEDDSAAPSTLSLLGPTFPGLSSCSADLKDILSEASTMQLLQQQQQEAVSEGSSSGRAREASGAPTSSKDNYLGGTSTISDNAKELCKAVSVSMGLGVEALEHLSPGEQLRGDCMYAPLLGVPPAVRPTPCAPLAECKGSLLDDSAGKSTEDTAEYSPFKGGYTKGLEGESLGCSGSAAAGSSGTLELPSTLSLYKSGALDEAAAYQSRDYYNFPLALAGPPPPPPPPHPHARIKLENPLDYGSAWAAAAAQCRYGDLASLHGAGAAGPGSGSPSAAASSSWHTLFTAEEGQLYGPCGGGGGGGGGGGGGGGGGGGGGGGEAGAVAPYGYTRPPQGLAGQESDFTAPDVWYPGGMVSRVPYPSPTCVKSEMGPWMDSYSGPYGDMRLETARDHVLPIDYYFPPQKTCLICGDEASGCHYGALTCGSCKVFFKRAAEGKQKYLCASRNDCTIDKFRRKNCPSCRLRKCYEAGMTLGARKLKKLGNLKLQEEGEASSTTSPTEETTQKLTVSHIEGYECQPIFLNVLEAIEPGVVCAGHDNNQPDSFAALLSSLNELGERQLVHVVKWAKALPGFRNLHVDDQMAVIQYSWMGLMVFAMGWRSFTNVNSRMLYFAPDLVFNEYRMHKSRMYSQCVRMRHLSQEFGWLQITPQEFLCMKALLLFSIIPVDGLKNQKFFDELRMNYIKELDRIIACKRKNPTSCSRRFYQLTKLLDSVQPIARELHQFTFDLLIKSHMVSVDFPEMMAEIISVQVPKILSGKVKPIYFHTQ
The data set can be described thus: Antagonist activity at androgen receptor in human LNCAP cells assessed as decrease in testosterone-induced PSA expression levels at 10 uM after 24 hrs by Western blot analysis. The format is cell-based.

Data set [3] can be described thus: AUClast in Sprague-Dawley rat serum at 10 mg/kg, po administered as single dose by LC-MS/MS analysis. The format is ADME, organism-based. The arrangement: dose 10 mg/kg, route oral, time 0 - last.
For data set [4], the system named is Rattus norvegicus. The data set can be described thus: Toxicity in benign prostatic hyperplasia Sprague-Dawley rat model assessed as effect on epididymis weight at 10 mg/kg, po qd co-administered with citral for 21 days starting post 8 days of citral alone treatment. Type of data set: organism-based. Particulars: in vivo.
The nature of data set [5]: Apparent clearance in Sprague-Dawley rat hypothalamus at 10 mg/kg, po administered as single dose by LC-MS/MS analysis. The following applies: in vivo. The format is ADME, organism-based.
A short description of data set [6]: AUClast in Sprague-Dawley rat hypothalamus at 10 mg/kg, po administered as single dose by LC-MS/MS analysis. Type of data set: ADME, organism-based. The following applies: in vivo.
A short description of data set [7]: Apparent clearance in Sprague-Dawley rat serum at 10 mg/kg, po administered as single dose by LC-MS/MS analysis. Type of data set: ADME, organism-based.
Data set [8] has as its system Rattus norvegicus. Description: Anti-androgenic activity in citral-induced benign prostatic hyperplasia Sprague-Dawley rat model assessed as reduction in tissue differentiation into stroma at 10 mg/kg, po qd co-administered with citral for 21 days starting post 8 days of citral alone treatment by hematoxyline and eosin staining based light microscopic analysis. Type of data set: functional, organism-based.

The nature of data set [9]: Ratio of AUClast in Sprague-Dawley rat prostate to serum at 10 mg/kg, po administered as single dose by LC-MS/MS analysis. The format is ADME, organism-based. Particulars: read-out: Ratio AUC.
Data set [10] has as its system PC-3. Description: Antiproliferative activity against human PC3 cells assessed as decrease in cell viability after 24 hrs by MTT assay. The format is functional, cell-based. The following applies: PC-3, 24 h. (In general: Tetrazolium assays rely on reduction of a dye to a coloured formazan, in cell work by metabolically active cells.)
In data set [11] the test system is Rattus norvegicus. Description: Toxicity in benign prostatic hyperplasia Sprague-Dawley rat model assessed as effect on seminal vesicle weight at 10 mg/kg, po qd co-administered with citral for 21 days starting post 8 days of citral alone treatment. The format is organism-based. Particulars: in vivo.
In data set [12] the test system is LNCaP. The data set can be described thus: Antiproliferative activity against human LNCAP cells assessed as decrease in cell viability after 24 hrs by MTT assay. Type of data set: functional, cell-based.
A short description of data set [13]: Apparent volume of distribution in Sprague-Dawley rat prostate at 10 mg/kg, po administered as single dose by LC-MS/MS analysis. The format is ADME, organism-based, Prostate gland. Particulars: in vivo.
Data set [14] concerns Rattus norvegicus. The data set can be described thus: Anti-androgenic activity in benign prostatic hyperplasia Sprague-Dawley rat model assessed as reduction in citral-induced prostate weight at 10 mg/kg, po qd co-administered with citral for 21 days starting post 8 days of citral alone treatment. Type of data set: functional. Set-up: scale not given: the % may be the effect or the level left.

The nature of data set [15]: Tmax in Sprague-Dawley rat hypothalamus at 10 mg/kg, po administered as single dose by LC-MS/MS analysis. Type of data set: ADME, organism-based.
The subject of data set [16] is Rattus norvegicus. The data set can be described thus: Anti-androgenic activity in citral-induced benign prostatic hyperplasia Sprague-Dawley rat model assessed as reduction in tissue differentiation into acinar compartments at 10 mg/kg, po qd co-administered with citral for 21 days starting post 8 days of citral alone treatment by hematoxyline and eosin staining based light microscopic analysis. The format is functional, organism-based.

Data set [17] in a line: AUClast in Sprague-Dawley rat prostate at 10 mg/kg, po administered as single dose by LC-MS/MS analysis. The format is ADME, organism-based, Prostate gland. Particulars: in vivo.
Data set [18] in a line: Cmax in Sprague-Dawley rat serum at 10 mg/kg, po administered as single dose by LC-MS/MS analysis. The format is ADME, organism-based. Set-up: dose 10 mg/kg, route oral.
Data set [19] in a line: Ratio of AUClast in Sprague-Dawley rat hypothalamus to serum at 10 mg/kg, po administered as single dose by LC-MS/MS analysis. Particulars: read-out: Ratio AUC. Type of data set: ADME, organism-based.
The subject of data set [20] is LNCaP. Description: Cytotoxicity against human LNCAP cells assessed as reduction in cell viability after 24 hrs by MTT assay. The format is functional, cell-based.
In data set [21] the test system is DU-145. Description: Antiproliferative activity against human DU145 cells assessed as decrease in cell viability after 24 hrs by MTT assay. Type of data set: functional, cell-based. The following applies: DU-145, 24 h.
Data set [22] in a line: Apparent volume of distribution in Sprague-Dawley rat serum at 10 mg/kg, po administered as single dose by LC-MS/MS analysis. The format is ADME, organism-based.
Data set [23] deals with T1, Androgen receptor (Homo sapiens). Description: Antagonist activity at human androgen receptor expressed in African green monkey COS7 cells at 7.5 uM after 24 hrs by ARE-dual luciferase reporter gene assay. Type of data set: cell-based. A general note: A reporter such as luciferase makes a cellular process visible.
Data set [24] deals with T2, Alpha-1A adrenergic receptor (Homo sapiens) (UniProt P35348).
T2 sequence (whole entry): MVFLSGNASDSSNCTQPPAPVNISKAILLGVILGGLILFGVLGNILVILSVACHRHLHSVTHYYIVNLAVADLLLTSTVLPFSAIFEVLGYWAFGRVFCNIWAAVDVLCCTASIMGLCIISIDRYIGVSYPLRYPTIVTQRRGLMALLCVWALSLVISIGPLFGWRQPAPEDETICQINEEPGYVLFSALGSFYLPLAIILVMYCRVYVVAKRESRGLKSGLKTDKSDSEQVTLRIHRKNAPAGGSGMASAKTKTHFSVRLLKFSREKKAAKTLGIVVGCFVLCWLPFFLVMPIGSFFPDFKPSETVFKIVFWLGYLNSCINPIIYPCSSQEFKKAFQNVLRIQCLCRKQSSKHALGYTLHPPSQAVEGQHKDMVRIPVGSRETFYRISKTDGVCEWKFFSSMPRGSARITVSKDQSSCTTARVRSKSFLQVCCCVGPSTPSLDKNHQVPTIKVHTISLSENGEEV
Description: Antagonist activity at human alpha1A adrenergic receptor expressed in Chem1 cells assessed as decrease in epinephrine-induced calcium mobilization by measuring relative fluorescence unit at 10 uM by fluoforte dye based fluorescence assay relative to epinephrine. The format is functional, cell-based. Background: A change in cytosolic calcium serves as a functional read-out for many receptors and channels.

The nature of data set [25]: Cmax in Sprague-Dawley rat hypothalamus at 10 mg/kg, po administered as single dose by LC-MS/MS analysis. The format is ADME, organism-based. The arrangement: dose 10 mg/kg, route oral.
Data set [26] in a line: Tmax in Sprague-Dawley rat serum at 10 mg/kg, po administered as single dose by LC-MS/MS analysis. Type of data set: ADME, organism-based.
The nature of data set [27]: Apparent volume of distribution in Sprague-Dawley rat hypothalamus at 10 mg/kg, po administered as single dose by LC-MS/MS analysis. Type of data set: ADME, organism-based. The following applies: in vivo.
Data set [28] can be described thus: Apparent clearance in Sprague-Dawley rat prostate at 10 mg/kg, po administered as single dose by LC-MS/MS analysis. The format is ADME, organism-based, Prostate gland. Particulars: in vivo.
Data set [29] in a line: Tmax in Sprague-Dawley rat prostate at 10 mg/kg, po administered as single dose by LC-MS/MS analysis. Type of data set: ADME, organism-based, Prostate gland.
Data set [30] is described as follows: Cmax in Sprague-Dawley rat prostate at 10 mg/kg, po administered as single dose by LC-MS/MS analysis. The format is ADME, organism-based, Prostate gland. Set-up: dose 10 mg/kg, route oral.
Data set [31] relates to Rattus norvegicus. Description: Anti-androgenic activity in citral-induced benign prostatic hyperplasia Sprague-Dawley rat model assessed as reduction in stromal component at 10 mg/kg, po qd co-administered with citral for 21 days starting post 8 days of citral alone treatment by hematoxyline and eosin staining based light microscopic analysis. Type of data set: functional, organism-based.

Data set [32] deals with T2, Alpha-1A adrenergic receptor (Homo sapiens). The data set can be described thus: Antagonist activity at human alpha1A adrenergic receptor expressed in Chem1 cells assessed as decrease in epinephrine-induced calcium mobilization by measuring relative fluorescence unit at 1 uM by fluoforte dye based fluorescence assay relative to epinephrine. Type of data set: functional, cell-based.

Active and inactive are the calls of the source. The rule behind the calls is not given here.

In general, AUC(0-t) refers to the area under the concentration-time curve up to a stated or last time point. One may read the EC50 as the midpoint of the concentration-response curve. The term Tmax denotes the time at which the peak concentration occurs. As usually defined, the Cmax is the peak of the concentration-time curve. Turning to `O=C(CN1CCN(c2ccc([N+](=O)[O-])cc2)CC1)N1CCN(c2ccc([N+](=O)[O-])cc2)CC1`, the Activity entry in [1] is “Non-Toxic”; in data set [4], “Non-Toxic”; in data set [11], “Non-Toxic”; in [14] it was 46.2%. Besides, the result in data set [2], in data set [8], in data set [16], in data set [23] and in [31] was Active. In addition, the AUC(0-t) in [3] was 24100 ng·h/mL. The CL/F in [5] was 383.2 g/h/kg; in data set [7], 6.67 mL/min/kg; in data set [28], 268.2 g/h/kg. Also, the AUClast was 26.1 µg·h/g in [6] and 37.3 µg·h/g in data set [17]. In addition, the Kp in data set [9] turned out to be 1.5; in [19], 1.1. In addition, the EC50 in data set [10] is over 80 µM; in data set [12], 11.2 µM; in data set [20], 11.2 µM; in data set [21], over 80 µM. In addition, the Vd/F in data set [13] amounted to 2311.9 g/kg; in data set [22] it was 4.2 L/kg; in data set [27] it was 3313.7 g/kg. Also, the Tmax in [15], in data set [26] and in data set [29] was 10 h throughout. For the same molecule, the Cmax in data set [18] came to 1100 ng/mL; in data set [25], 1200 ng/g; in data set [30], 2400 ng/g. For the same molecule, the fold change (FC) in data set [24] was found to be 1.6.

For the molecule `CC(C)C(=O)Nc1ccc([N+](=O)[O-])c(C(F)(F)F)c1` [FLUTAMIDE], the Activity result in data set [1] is given as “Non-Toxic”; in data set [4] it was “Non-Toxic”; in data set [11] it was “Non-Toxic”; in [14], 51.8%. Moreover, the outcome in data set [8], in [16] and in data set [31] was Active. Moreover, the EC50 in data set [20] was 7 µM.

In the case of `COc1ccccc1N1CCN(C(=O)CCl)CC1`, the outcome in data set [2] was Active. Besides, the EC50 in [10] is over 80 µM; in [12], 7.6 µM; in [20] it was 7.6 µM; in [21] it was over 80 µM. The fold change (FC) in data set [24] came to 1.6.

Turning to `O=C(CCl)N1CCN(c2ccc([N+](=O)[O-])cc2)CC1`, the Activity entry in data set [1] is “Non-Toxic”; in data set [4], “Non-Toxic”; in data set [11], “Non-Toxic”; in data set [14] it was 31.6 - 32%. Besides, the outcome in [2], in [8], in [16], in [23] and in [31] was Active. Besides, the EC50 is 65 µM in [10], 9.8 µM in data set [12], 9.8 µM in data set [20] and over 70.6 µM in [21]. In addition, the fold change (FC) in data set [24] was found to be 1.6.

Consider `CCOc1ccccc1OCCN[C@H](C)Cc1ccc(OC)c(S(N)(=O)=O)c1`, for which the fold change (FC) in data set [32] is 1.6.
